The values that follow come from ChEMBL document CHEMBL5614372, “Advances in dual-targeting inhibitors of HDAC6 for cancer treatment” (Eur J Med Chem, 2024).

The target of assay [1] is T1, Protein deacetylase HDAC6 (Homo sapiens, UniProt Q9UBN7).
T1 sequence (Q9UBN7 whole entry): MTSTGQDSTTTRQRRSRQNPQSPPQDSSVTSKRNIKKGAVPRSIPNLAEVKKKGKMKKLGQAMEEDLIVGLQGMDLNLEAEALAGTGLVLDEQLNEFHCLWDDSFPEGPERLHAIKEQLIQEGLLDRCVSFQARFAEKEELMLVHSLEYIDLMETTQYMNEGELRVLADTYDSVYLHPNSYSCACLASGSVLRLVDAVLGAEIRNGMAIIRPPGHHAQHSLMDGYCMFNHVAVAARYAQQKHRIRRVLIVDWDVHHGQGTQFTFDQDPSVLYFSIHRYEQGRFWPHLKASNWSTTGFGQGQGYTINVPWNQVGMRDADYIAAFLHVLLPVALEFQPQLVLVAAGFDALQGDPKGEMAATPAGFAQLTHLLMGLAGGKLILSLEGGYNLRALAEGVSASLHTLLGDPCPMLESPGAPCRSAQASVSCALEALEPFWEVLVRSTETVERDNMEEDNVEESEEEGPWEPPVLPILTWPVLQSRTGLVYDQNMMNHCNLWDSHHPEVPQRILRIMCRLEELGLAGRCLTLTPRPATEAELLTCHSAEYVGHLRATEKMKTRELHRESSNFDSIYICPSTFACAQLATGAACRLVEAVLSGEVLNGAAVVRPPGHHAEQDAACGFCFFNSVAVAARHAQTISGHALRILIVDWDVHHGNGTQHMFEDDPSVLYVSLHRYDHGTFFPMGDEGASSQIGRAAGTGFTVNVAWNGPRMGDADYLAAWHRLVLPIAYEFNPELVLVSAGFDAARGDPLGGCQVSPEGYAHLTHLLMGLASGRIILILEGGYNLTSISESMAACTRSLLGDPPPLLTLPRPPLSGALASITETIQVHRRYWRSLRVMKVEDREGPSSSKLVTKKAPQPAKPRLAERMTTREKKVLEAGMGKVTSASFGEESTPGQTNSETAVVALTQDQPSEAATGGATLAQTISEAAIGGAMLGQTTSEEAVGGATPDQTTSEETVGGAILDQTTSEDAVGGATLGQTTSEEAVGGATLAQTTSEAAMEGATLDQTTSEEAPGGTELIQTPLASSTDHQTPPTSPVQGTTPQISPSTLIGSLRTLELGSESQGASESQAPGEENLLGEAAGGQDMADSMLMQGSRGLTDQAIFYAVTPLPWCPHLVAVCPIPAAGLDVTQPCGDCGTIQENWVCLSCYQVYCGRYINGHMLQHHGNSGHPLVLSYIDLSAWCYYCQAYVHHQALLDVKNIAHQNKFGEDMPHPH
Kind of assay: Inhibition of HDAC6 (unknown origin) extracted from baculovirus infected Sf9 insect cells using fluorescent peptide p53 (379 to 382 residues) RHKK(Ac)AMC as substrate by fluorescence based analysis.

Assay [2] deals with ALK tyrosine kinase receptor (Homo sapiens, UniProt Q9UM73). In words: Inhibition of ALK (unknown origin) using poly[Glu:Tyr] (4:1) as substrate incubated for 2 hrs by [gamma-33P]ATP assay.
Another assay concerns A549. Kind of assay: Antitumor activity against human A549 cells xenografted in BALB/c nude mouse assessed as inhibition of tumor growth at 20 mg/kg, ip administered once daily for 21 days relative to control. Type of assay: functional. Details: scale not given: the % may be the effect or the level left. The following applies: time 21 day.
In assay [3] the target is T2, Histone deacetylase 3 (Homo sapiens, UniProt O15379). In words: Inhibition of HDAC3 (unknown origin).
In another assay the target is Histone deacetylase 1 (Homo sapiens, UniProt Q13547). Kind of assay: Inhibition of HDAC1 (unknown origin).
The target of assay [4] is T3, Histone deacetylase 4 (Homo sapiens, UniProt P56524). Kind of assay: Inhibition of HDAC4 (unknown origin).
For a further assay, the target named is T4, Histone deacetylase 8 (Homo sapiens, UniProt Q9BY41).
T4 sequence (Q9BY41 whole entry): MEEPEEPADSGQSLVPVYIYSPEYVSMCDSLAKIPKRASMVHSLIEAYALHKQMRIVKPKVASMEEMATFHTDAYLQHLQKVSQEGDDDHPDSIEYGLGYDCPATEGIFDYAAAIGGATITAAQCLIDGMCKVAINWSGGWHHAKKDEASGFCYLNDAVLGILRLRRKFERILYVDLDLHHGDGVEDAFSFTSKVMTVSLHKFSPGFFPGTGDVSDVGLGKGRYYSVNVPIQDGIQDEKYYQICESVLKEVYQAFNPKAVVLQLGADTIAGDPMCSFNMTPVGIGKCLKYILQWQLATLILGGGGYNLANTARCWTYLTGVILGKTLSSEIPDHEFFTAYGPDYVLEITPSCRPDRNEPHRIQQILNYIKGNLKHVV
Kind of assay: Inhibition of HDAC8 (unknown origin).

Another assay deals with Histone deacetylase 2 (Homo sapiens, UniProt Q92769). Kind of assay: Inhibition of HDAC2 (unknown origin).
The target in assay [5] is T5, Histone deacetylase 5 (Homo sapiens, UniProt Q9UQL6). In words: Inhibition of HDAC5 (unknown origin).
Assay [6] has as its target T6, Histone deacetylase 7 (Homo sapiens, UniProt Q8WUI4). Kind of assay: Inhibition of HDAC7 (unknown origin).
For the next assay, the target named is Histone deacetylase 9 (Homo sapiens, UniProt Q9UKV0). In words: Inhibition of HDAC9 (unknown origin).
The target of assay [7] is Glutamate [NMDA] receptor. Kind of assay: Binding affinity to NMDA receptor (unknown origin) assessed as inhibition constant. Format: protein-complex assay, Homo sapiens.
Assay [8] has as its target Glutamate [NMDA] receptor (Homo sapiens) (UniProt Q05586+Q12879+Q13224+O15399+O60391+Q14957+Q8TCU5). Kind of assay: Inhibition of NMDA receptor (unknown origin) at 10 uM relative to control. Type of assay: protein-complex assay.
The target in another assay is Histone deacetylase 11 (Homo sapiens, UniProt Q96DB2). In words: Inhibition of HDAC11 (unknown origin).
The target of assay [9] is Phosphatidylinositol 4,5-bisphosphate 3-kinase catalytic subunit beta isoform (Homo sapiens, UniProt P42338). Kind of assay: Inhibition of PI3Kbeta (unknown origin).
Assay [10] deals with Phosphatidylinositol 4,5-bisphosphate 3-kinase catalytic subunit delta isoform (Homo sapiens, UniProt O00329). In words: Inhibition of PI3Kdelta (unknown origin).
In assay [11] the target is Phosphatidylinositol 4,5-bisphosphate 3-kinase catalytic subunit gamma isoform (Homo sapiens, UniProt P48736). In words: Inhibition of PI3Kgamma (unknown origin).
In assay [12] the target is High affinity cGMP-specific 3',5'-cyclic phosphodiesterase 9A (Homo sapiens, UniProt O76083). In words: Inhibition of PDE9A (unknown origin).
Assay [13] in a line: Inhibition of HSP90 (unknown origin) by fluorescence polarization assay. On the set-up: species or system Homo sapiens. For orientation: Fluorescence polarisation rises when a labelled molecule tumbles more slowly, as on binding a larger partner.
For assay [14], the target named is T1, Protein deacetylase HDAC6. Kind of assay: Inhibition of HDAC6 (unknown origin).
The target of assay [15] is Steroid 17-alpha-hydroxylase/17,20 lyase (Homo sapiens, UniProt P05093). In words: Inhibition of CYP17A1 (unknown origin). Format: ADME.
The target in assay [16] is Serine/threonine-protein kinase PAK 1 (Homo sapiens, UniProt Q13153). Kind of assay: Inhibition of PAK1 (unknown origin).
In assay [17] the target is Serine/threonine-protein kinase PAK 2 (Homo sapiens, UniProt Q13177). In words: Inhibition of PAK2 (unknown origin).
Assay [18] concerns the target Serine/threonine-protein kinase PAK 3 (Homo sapiens, UniProt O75914). In words: Inhibition of PAK3 (unknown origin).
Assay [19] deals with cGMP-specific 3',5'-cyclic phosphodiesterase (Homo sapiens, UniProt O76074). In words: Inhibition of PDE5A (unknown origin).
The target of assay [20] is Estrogen receptor (Homo sapiens) (UniProt P03372). In words: Binding affinity to ERalpha (unknown origin) assessed as relative binding affinity by fluorescence polarization assay relative to control.
In assay [21] the target is Estrogen receptor beta (Homo sapiens) (UniProt Q92731). Kind of assay: Binding affinity to ERbeta (unknown origin) assessed as relative binding affinity by fluorescence polarization assay relative to control.
Assay [22] addresses Serine/threonine-protein kinase B-raf (Homo sapiens, UniProt P15056). In words: Inhibition of wild type B-RAF (unknown origin).
In assay [23] the target is T2, Histone deacetylase 3. In words: Inhibition of human recombinant HDAC3 using fluorogenic HDAC substrate incubated for 20 mins by fluorescence based assay.
Assay [24] addresses T3, Histone deacetylase 4. Kind of assay: Inhibition of human recombinant HDAC4 using fluorogenic HDAC substrate incubated for 20 mins by fluorescence based assay.
Assay [25] addresses T5, Histone deacetylase 5. In words: Inhibition of human recombinant HDAC5 using fluorogenic HDAC substrate incubated for 20 mins by fluorescence based assay.
Assay [26] has as its target T1, Protein deacetylase HDAC6. In words: Inhibition of human recombinant HDAC6 using fluorogenic HDAC substrate incubated for 20 mins by fluorescence based assay.
For assay [27], the target named is T6, Histone deacetylase 7. Kind of assay: Inhibition of human recombinant HDAC7 using fluorogenic HDAC substrate incubated for 20 mins by fluorescence based assay.

Chain of Histone deacetylase 2 (Q92769 whole entry): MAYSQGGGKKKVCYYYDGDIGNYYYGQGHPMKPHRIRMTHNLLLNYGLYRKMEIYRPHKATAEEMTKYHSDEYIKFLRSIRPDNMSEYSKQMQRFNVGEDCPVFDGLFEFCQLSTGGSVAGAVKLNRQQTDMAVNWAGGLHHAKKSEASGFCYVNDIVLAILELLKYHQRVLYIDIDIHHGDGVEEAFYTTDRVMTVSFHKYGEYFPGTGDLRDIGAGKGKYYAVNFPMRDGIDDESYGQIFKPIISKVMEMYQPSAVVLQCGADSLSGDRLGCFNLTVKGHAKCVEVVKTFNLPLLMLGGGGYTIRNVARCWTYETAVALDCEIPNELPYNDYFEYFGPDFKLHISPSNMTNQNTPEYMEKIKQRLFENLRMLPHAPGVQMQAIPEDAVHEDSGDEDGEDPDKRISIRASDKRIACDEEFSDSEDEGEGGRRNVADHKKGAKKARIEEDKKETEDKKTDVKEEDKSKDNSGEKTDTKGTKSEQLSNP
T2 sequence (O15379 whole entry): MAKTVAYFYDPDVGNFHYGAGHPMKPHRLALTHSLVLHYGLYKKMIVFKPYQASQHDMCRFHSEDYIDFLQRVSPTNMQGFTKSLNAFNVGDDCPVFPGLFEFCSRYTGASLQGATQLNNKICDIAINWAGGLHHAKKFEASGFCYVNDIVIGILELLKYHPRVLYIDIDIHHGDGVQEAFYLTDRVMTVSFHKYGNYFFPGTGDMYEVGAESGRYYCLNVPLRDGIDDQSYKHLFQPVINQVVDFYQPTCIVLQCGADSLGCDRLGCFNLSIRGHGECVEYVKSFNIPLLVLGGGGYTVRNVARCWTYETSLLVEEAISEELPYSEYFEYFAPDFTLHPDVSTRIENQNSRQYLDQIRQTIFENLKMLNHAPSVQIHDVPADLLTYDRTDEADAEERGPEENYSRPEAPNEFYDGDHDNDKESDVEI
T3 sequence (P56524 whole entry): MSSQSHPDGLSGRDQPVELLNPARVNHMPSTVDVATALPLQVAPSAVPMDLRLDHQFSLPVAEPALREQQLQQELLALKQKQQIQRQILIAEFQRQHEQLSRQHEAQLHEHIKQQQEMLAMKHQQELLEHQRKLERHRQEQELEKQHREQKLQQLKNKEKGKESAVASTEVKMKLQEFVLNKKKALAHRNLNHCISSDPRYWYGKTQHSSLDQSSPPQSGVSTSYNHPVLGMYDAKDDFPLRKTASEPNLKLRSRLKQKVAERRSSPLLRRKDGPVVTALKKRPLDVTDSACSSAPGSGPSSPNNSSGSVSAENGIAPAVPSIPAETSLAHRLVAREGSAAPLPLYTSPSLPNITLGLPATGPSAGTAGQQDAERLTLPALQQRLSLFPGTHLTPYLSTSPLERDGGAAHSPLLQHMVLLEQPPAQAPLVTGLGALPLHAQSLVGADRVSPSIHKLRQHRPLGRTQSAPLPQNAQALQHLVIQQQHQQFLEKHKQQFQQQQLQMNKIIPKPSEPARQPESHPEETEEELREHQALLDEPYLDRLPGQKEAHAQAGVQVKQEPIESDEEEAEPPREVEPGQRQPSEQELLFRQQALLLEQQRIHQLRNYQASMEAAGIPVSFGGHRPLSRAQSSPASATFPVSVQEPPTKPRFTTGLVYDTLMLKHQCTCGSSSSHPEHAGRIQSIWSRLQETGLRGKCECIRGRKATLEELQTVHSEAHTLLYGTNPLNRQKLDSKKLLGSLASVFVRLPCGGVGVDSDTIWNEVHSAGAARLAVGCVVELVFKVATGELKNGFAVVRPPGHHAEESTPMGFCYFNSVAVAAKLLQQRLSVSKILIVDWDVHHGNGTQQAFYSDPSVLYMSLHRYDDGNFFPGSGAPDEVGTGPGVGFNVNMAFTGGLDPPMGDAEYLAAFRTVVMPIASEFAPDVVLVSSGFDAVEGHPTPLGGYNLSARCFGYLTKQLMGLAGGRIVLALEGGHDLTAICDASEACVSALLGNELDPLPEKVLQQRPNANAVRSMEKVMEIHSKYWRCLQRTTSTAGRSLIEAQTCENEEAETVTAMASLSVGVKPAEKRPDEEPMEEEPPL
Chain of Histone deacetylase 1 (Q13547 whole entry): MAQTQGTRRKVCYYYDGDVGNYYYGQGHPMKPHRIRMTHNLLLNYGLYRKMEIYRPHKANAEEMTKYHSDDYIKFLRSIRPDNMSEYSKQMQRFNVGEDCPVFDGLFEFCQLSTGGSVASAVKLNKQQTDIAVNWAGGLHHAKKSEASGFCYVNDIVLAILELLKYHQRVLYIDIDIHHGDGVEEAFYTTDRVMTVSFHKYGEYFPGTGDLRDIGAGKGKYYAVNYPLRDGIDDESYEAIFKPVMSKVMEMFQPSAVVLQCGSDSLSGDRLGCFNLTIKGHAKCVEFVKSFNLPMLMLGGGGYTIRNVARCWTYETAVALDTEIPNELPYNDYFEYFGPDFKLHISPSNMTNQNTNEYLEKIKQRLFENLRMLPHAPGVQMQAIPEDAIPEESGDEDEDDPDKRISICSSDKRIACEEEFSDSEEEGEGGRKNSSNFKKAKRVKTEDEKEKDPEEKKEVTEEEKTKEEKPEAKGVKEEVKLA
T5 sequence (Q9UQL6 whole entry): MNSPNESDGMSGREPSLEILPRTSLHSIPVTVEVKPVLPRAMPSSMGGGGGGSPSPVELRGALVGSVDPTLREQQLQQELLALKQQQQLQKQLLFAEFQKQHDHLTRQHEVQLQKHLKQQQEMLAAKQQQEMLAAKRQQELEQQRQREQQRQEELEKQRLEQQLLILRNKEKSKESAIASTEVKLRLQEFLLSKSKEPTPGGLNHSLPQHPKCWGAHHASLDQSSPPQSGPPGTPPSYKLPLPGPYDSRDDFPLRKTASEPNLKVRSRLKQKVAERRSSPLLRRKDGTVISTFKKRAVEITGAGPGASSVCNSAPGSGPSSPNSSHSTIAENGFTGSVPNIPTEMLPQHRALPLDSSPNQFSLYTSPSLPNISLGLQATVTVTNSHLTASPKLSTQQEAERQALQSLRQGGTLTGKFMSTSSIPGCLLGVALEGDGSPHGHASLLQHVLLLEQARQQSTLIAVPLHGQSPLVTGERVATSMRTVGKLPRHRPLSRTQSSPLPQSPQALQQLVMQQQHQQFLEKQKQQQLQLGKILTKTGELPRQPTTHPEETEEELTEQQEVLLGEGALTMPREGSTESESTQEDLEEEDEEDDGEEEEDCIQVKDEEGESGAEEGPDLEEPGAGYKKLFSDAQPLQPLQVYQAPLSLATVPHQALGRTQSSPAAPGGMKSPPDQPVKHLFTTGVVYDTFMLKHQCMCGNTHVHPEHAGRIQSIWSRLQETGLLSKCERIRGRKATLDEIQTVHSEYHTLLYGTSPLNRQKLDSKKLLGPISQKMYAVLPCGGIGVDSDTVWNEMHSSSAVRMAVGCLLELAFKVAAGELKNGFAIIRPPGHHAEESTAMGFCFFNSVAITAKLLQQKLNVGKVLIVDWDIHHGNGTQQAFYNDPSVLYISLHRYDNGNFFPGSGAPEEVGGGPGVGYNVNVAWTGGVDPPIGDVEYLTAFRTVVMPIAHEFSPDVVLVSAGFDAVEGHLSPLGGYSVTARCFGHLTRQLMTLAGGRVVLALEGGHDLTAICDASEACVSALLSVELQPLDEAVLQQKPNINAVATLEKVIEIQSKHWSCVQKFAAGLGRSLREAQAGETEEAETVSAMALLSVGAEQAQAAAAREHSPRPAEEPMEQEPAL
T6 sequence (Q8WUI4 whole entry): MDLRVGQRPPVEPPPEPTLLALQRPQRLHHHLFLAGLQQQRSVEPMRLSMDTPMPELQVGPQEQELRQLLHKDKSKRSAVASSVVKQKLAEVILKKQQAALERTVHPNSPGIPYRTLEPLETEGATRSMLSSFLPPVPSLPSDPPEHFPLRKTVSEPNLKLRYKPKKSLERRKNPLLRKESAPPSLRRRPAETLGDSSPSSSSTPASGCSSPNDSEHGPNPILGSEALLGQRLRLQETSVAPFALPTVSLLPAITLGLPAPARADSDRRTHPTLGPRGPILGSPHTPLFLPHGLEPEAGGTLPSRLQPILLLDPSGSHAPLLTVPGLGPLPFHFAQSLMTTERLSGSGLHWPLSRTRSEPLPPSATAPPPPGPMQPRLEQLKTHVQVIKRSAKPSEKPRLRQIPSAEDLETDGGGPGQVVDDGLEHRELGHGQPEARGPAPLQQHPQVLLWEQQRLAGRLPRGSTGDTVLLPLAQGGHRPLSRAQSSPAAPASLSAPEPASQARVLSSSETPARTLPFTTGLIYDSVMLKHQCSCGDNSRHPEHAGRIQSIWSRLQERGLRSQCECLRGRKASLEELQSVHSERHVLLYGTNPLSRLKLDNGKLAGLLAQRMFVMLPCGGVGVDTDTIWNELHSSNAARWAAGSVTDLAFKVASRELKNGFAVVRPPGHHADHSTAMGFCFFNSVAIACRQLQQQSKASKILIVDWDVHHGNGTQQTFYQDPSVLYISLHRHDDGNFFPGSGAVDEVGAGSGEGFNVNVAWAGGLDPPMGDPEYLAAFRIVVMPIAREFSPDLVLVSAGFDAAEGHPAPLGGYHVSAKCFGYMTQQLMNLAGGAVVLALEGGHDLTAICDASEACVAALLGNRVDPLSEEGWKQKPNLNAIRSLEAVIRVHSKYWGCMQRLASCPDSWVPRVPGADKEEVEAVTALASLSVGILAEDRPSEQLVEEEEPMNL
Chain of Steroid 17-alpha-hydroxylase/17,20 lyase (P05093 whole entry): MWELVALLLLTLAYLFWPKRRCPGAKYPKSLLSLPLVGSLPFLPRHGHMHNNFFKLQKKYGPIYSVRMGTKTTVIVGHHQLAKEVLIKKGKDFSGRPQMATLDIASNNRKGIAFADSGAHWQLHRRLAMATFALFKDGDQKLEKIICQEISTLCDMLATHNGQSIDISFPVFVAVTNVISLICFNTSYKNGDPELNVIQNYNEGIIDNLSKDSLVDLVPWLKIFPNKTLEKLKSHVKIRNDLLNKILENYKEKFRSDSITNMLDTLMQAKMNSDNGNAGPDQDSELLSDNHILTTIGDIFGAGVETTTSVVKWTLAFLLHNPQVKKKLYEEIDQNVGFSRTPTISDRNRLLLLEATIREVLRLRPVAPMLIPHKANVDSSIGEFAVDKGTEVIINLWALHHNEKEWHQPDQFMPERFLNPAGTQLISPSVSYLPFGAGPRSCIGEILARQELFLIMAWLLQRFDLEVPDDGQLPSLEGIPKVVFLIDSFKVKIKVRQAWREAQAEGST

For the molecule `CC(C)NC(=O)[C@H]1CC[C@@H](n2/c(=N/C(=O)c3ccccc3)[nH]c3cc(/C=C/C(=O)NO)ccc32)CC1`, the IC50 – broadly, the concentration that gives 50% inhibition – in assay [1] was 1030 nM; in assay [2] it was 16 nM. Besides, the Activity with A549 turned out to be 80%.
`CC12CC3CC(C)(C1)CC(NC(=O)/C=C/c1ccc(C(=O)NO)cc1)(C3)C2`: the IC50 against Histone deacetylase 3 [3] is 2210 nM; against Histone deacetylase 1, 2670 nM; at Histone deacetylase 4 [4], over 10000 nM; against Histone deacetylase 8 it was 620 nM; on Histone deacetylase 2 it was 8000 nM; at Histone deacetylase 5 [5], over 10000 nM. Also, the IC50 at Histone deacetylase 7 [6] and on Histone deacetylase 9 was over 10000 nM in each case. Besides, in assay [7], the Ki (commonly the dissociation constant of the complex between target and ligand, obtained from inhibition or displacement) stood at 560 nM. Besides, the inhibition (commonly how much of the control response was suppressed) in assay [8] was determined as 64.4%.
As for `O=C(NO)c1ccc(/C=N/NC(=O)c2cc(N3CCOCC3)nc(-c3cccc(O)c3)n2)cc1`, the IC50 at Histone deacetylase 1 was over 3000 nM; at Histone deacetylase 4 [4], over 3000 nM; against Histone deacetylase 8, 67.6 nM; on Histone deacetylase 11 it was over 3000 nM; in assay [9], 72.8 nM; in assay [10] it was 72.4 nM. In [11], this molecule displayed an IC50 of 1300 nM.
On to `C[C@H](c1nc2c(cnn2C2CCCC2)c(=O)[nH]1)N1CC(Oc2ncccn2)C1`, for which the IC50 in [12] is 32 nM.
Take `CC(C)c1cc(C(=O)N(C)Cc2ccc(C(=O)NO)cc2)c(O)cc1O`: the IC50 in assay [13] came to 61 nM.
Regarding `C[C@]12CC[C@H](OC(=O)CCCCCC(=O)NO)CC1=CCC1C2CC[C@]2(C)C(c3cccnc3)=CCC12` (some centres not stated), the values for the IC50 (in assay [14]; on Histone deacetylase 8; in [15]) were 600 nM, over 10000 nM and 284 nM, respectively.
Turning to `O=C(CCCCCn1c(=O)c(-c2ccc(Cl)cc2Cl)cc2cnc(NC3CC3)nc21)NO`, the IC50 against Histone deacetylase 3 [3] amounted to 177 nM; against Histone deacetylase 1, 233 nM; in assay [14], 38.2 nM; on Histone deacetylase 8 it was 190 nM; on Histone deacetylase 2 it was 157 nM; in assay [16], 13.6 nM. For the same molecule, the IC50 in assay [17] was 193 nM; in [18] it was 441 nM.
`C[C@@H]1CN(Cc2ccc(C(=O)NO)cc2)C[C@H]1c1nc2c(cnn2C2CCOCC2)c(=O)[nH]1`: the IC50 at Histone deacetylase 1 is 593 nM; in [14], 40 nM; at Histone deacetylase 2, 3530 nM; in assay [12], 107 nM; in [19] it was over 10000 nM.
In the case of `N#CC(C#N)=C1C=C(/C=C/c2ccc(O)c(NC(=O)CCCCCCC(=O)NO)c2)Oc2ccccc21`, the RBA in assay [20] is 0.005%; in assay [21] it was 0.25%.
With `CC(C)(C)c1nc(-c2cccc(NS(=O)(=O)c3c(F)cccc3F)c2F)c(-c2ccnc(NCCCCCCC(=O)NO)n2)s1`, the IC50 in assay [22] was 4 nM; at Histone deacetylase 3 [23], 930 nM; on Histone deacetylase 4 [24], over 100000 nM; on Histone deacetylase 5 [25], over 52800 nM; in [26], 50 nM; at Histone deacetylase 7 [27], 3000 nM.
With `CCCCN(Cc1ccc(C(=O)NO)cc1)C(=O)CCCCn1cc(COc2cccc(Cc3cnc(NC(=O)CSc4nc(C)cc(C)n4)s3)c2)nn1`, the IC50 against Histone deacetylase 3 [3] is 2500 nM.
